Results published in patent US20240366775A1, “HUMAN TRANSFERRIN RECEPTOR BINDING ANTIBODY-PEPTIDE CONJUGATE” (PEPTIDREAM INC., priority 2021, published 2024).

What follows are molecules tested against human transferrin receptor (hTfR) (Homo sapiens, UniProt P02786) (assay: SPR measurement of peptide binding to hTfR). Conditions: not given.
Description: Note that ND indicates No Data (here, it means that no data was obtained).

Sequence of human transferrin receptor (hTfR) (P02786 whole entry): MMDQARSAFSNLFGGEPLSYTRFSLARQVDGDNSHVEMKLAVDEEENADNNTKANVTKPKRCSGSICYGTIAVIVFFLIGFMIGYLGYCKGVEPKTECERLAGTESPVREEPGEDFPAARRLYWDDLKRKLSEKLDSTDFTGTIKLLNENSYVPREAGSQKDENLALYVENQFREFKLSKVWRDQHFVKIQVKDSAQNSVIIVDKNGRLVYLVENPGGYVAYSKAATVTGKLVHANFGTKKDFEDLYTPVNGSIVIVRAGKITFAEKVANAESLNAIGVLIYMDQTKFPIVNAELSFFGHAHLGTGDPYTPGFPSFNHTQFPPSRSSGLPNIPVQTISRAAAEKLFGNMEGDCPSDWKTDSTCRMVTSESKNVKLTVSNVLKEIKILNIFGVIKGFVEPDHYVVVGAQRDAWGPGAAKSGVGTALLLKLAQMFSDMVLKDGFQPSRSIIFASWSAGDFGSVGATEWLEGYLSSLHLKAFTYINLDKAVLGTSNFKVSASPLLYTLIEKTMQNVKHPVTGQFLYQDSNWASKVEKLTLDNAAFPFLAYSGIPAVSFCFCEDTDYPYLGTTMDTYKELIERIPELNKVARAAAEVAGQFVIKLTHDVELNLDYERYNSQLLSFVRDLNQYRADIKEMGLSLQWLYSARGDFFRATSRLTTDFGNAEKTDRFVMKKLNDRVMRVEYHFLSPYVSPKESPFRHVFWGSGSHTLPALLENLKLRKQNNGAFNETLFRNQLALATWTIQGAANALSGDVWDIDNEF

Row | SMILES | Kd
1 | CC[C@H](C)[C@@H]1NC(=O)[C@H](Cc2ccc(O)cc2)NC(=O)[C@H](Cc2ccc(O)cc2)NC(=O)[C@H](CC(N)=O)NC(=O)[C@H](Cc2c[nH]c3ccccc23)NC(=O)[C@H](C(C)C)NC(=O)[C@H](Cc2ccccc2)N(C)C(=O)[C@H](C(C)C)NC(=O)[C@H](C)NC(=O)CSC[C@@H](C(=O)NCC(=O)NCC(=O)NCC(=O)NCC(=O)N[C@@H](CO)C(=O)N[C@@H](CO)C(=O)N[C@@H](CCCCNC(=O)C2CCC(CN3C(=O)C=CC3=O)CC2)C(N)=O)NC(=O)[C@H](Cc2ccc(O)cc2)N(C)C(=O)[C@H](Cc2ccc(O)cc2)NC(=O)[C@H](CCCNC(=N)N)NC(=O)[C@H](CCCNC(=N)N)NC(=O)[C@H]([C@@H](C)CC)NC1=O (stereo partly shown) [894_3m_G4S2_K(Mal)] | 1 to 100 nM

Same assay, conditions: measured on the naked peptide (1st to 15th amino acids, without linker) corresponding to the listed linker-attached peptide; read-out: KD value of binding to hTfR by SPR

Row | SMILES | Kd
2 | CC[C@H](C)[C@@H]1NC(=O)[C@H](Cc2ccc(O)cc2)NC(=O)[C@H](Cc2ccc(O)cc2)NC(=O)[C@H](CC(N)=O)NC(=O)[C@H](Cc2c[nH]c3ccccc23)N(C)C(=O)[C@H](C(C)C)NC(=O)[C@H](Cc2ccccc2)N(C)C(=O)[C@H](C(C)C)NC(=O)[C@H](C)NC(=O)CSC[C@@H](C(=O)NCC(=O)NCC(=O)N[C@@H](CO)C(=O)NCC(=O)N[C@@H](CCC(=O)O)C(=O)N[C@@H](CO)C(=O)N[C@@H](CCCCNC(=O)C2CCC(CN3C(=O)C=CC3=O)CC2)C(N)=O)NC(=O)[C@H](Cc2ccc(O)cc2)N(C)C(=O)[C@H](Cc2ccc(O)cc2)NC(=O)[C@H](CCCNC(=N)N)NC(=O)[C@H](CCCNC(=N)N)NC(=O)[C@H]([C@@H](C)CC)NC1=O (stereo partly shown) [894_3m_5m_GGSGES_K(Mal)] | 1 to 100 nM
3 | CC[C@H](C)[C@@H]1NC(=O)[C@H](Cc2ccc(O)cc2)NC(=O)[C@H](Cc2ccc(O)cc2)NC(=O)[C@H](CC(N)=O)NC(=O)[C@H](Cc2c[nH]c3ccccc23)NC(=O)[C@H](C(C)C)NC(=O)[C@H](Cc2ccccc2)N(C)C(=O)[C@H](C(C)C)NC(=O)[C@H](C)NC(=O)CSC[C@@H](C(=O)NCC(=O)NCC(=O)N[C@H](CCC(=O)O)C(=O)NCC(=O)NCC(=O)N[C@H](CCC(=O)O)C(=O)NCC(=O)NCC(=O)N[C@H](CCC(=O)O)C(=O)NCC(=O)NCC(=O)N[C@H](CCCCNC(=O)C2CCC(CN3C(=O)C=CC3=O)CC2)C(N)=O)NC(=O)[C@H](Cc2ccc(O)cc2)N(C)C(=O)[C@H](Cc2ccc(O)cc2)NC(=O)[C@H](CCCNC(=N)N)NC(=O)[C@H](CCCNC(=N)N)NC(=O)[C@H]([C@@H](C)CC)NC1=O (stereo partly shown) [894_3m_Linke04_dk(Mal)] | 1 to 100 nM

Further lines, results first:

Row | Kd | SMILES
4 | < 1 nM | CC[C@H](C)[C@@H]1NC(=O)[C@H](Cc2ccc(O)cc2)NC(=O)[C@H](Cc2ccc(O)cc2)NC(=O)[C@H](CC(N)=O)NC(=O)[C@H](Cc2c[nH]c3ccccc23)N(C)C(=O)[C@H](C(C)C)NC(=O)[C@H](Cc2ccccc2)NC(=O)[C@H](C(C)C)NC(=O)[C@H](C)NC(=O)CSC[C@@H](C(=O)NCC(=O)N[C@@H](CO)C(=O)N[C@@H](CO)C(=O)NCC(=O)N[C@@H](CO)C(=O)N[C@@H](CO)C(=O)N[C@@H](CCCCNC(=O)C2CCC(CN3C(=O)C=CC3=O)CC2)C(N)=O)NC(=O)[C@H](Cc2ccc(O)cc2)N(C)C(=O)[C@H](Cc2ccc(O)cc2)NC(=O)[C@H](CCCNC(=N)N)NC(=O)[C@H](CCCNC(=N)N)NC(=O)[C@H]([C@@H](C)CC)NC1=O (stereo partly shown) [894_5m_GSSGSS_K(Mal)]
5 | < 1 nM | CC[C@H](C)[C@@H]1NC(=O)[C@H](Cc2ccc(O)cc2)NC(=O)[C@H](Cc2ccc(O)cc2)NC(=O)[C@H](CC(N)=O)NC(=O)[C@H](Cc2c[nH]c3ccccc23)N(C)C(=O)[C@H](C(C)C)NC(=O)[C@H](Cc2ccccc2)NC(=O)[C@H](C(C)C)NC(=O)[C@H](C)NC(=O)CSC[C@@H](C(=O)NCC(=O)NCC(=O)N[C@@H](CO)C(=O)NCC(=O)N[C@@H](CCC(=O)O)C(=O)N[C@@H](CO)C(=O)N[C@@H](CCCCNC(=O)C2CCC(CN3C(=O)C=CC3=O)CC2)C(N)=O)NC(=O)[C@H](Cc2ccc(O)cc2)N(C)C(=O)[C@H](Cc2ccc(O)cc2)NC(=O)[C@H](CCCNC(=N)N)NC(=O)[C@H](CCCNC(=N)N)NC(=O)[C@H]([C@@H](C)CC)NC1=O (stereo partly shown) [894_5m_GGSGES_K(Mal)]
6 | < 1 nM | CC[C@H](C)[C@@H]1NC(=O)[C@H](Cc2ccc(O)cc2)NC(=O)[C@H](Cc2ccc(O)cc2)NC(=O)[C@H](CC(N)=O)NC(=O)[C@H](Cc2c[nH]c3ccccc23)N(C)C(=O)[C@H](C(C)C)NC(=O)[C@H](Cc2ccccc2)NC(=O)[C@H](C(C)C)NC(=O)[C@H](C)NC(=O)CSC[C@@H](C(=O)NCC(=O)NCC(=O)N[C@@H](CCCNC(=N)N)C(=O)N[C@@H](CO)C(=O)N[C@@H](CCC(=O)O)C(=O)N[C@@H](CO)C(=O)N[C@@H](CCCCNC(=O)C2CCC(CN3C(=O)C=CC3=O)CC2)C(N)=O)NC(=O)[C@H](Cc2ccc(O)cc2)N(C)C(=O)[C@H](Cc2ccc(O)cc2)NC(=O)[C@H](CCCNC(=N)N)NC(=O)[C@H](CCCNC(=N)N)NC(=O)[C@H]([C@@H](C)CC)NC1=O (stereo partly shown) [894_5m_GGRSES_K(Mal)]
7 | 1 to 100 nM | CC[C@H](C)[C@@H]1NC(=O)[C@H](Cc2ccc(O)cc2)NC(=O)[C@H](Cc2ccc(O)cc2)NC(=O)[C@H](CC(N)=O)NC(=O)[C@H](Cc2c[nH]c3ccccc23)NC(=O)[C@H](C(C)C)NC(=O)[C@H](Cc2ccccc2)N(C)C(=O)[C@H](C(C)C)NC(=O)[C@H](C)NC(=O)CSC[C@@H](C(=O)NCC(=O)NCC(=O)N[C@@H](CCCNC(=N)N)C(=O)NCC(=O)N[C@@H](CCCNC(=N)N)C(=O)N[C@@H](CO)C(=O)N[C@@H](CCCCNC(=O)C2CCC(CN3C(=O)C=CC3=O)CC2)C(N)=O)NC(=O)[C@H](Cc2ccc(O)cc2)N(C)C(=O)[C@H](Cc2ccc(O)cc2)NC(=O)[C@H](CCCNC(=N)N)NC(=O)[C@H](CCCNC(=N)N)NC(=O)[C@H]([C@@H](C)CC)NC1=O (stereo partly shown) [894_3m_GGRGRS_K(Mal)]
8 | < 1 nM | CC[C@H](C)[C@@H]1NC(=O)[C@H](Cc2ccc(O)cc2)NC(=O)[C@H](Cc2ccc(O)cc2)NC(=O)[C@H](CC(N)=O)NC(=O)[C@H](Cc2c[nH]c3ccccc23)N(C)C(=O)[C@H](C(C)C)NC(=O)[C@H](Cc2ccccc2)NC(=O)[C@H](C(C)C)NC(=O)[C@H](C)NC(=O)CSC[C@@H](C(=O)NCC(=O)NCC(=O)N[C@@H](CCC(=O)O)C(=O)N[C@@H](CO)C(=O)N[C@@H](CCC(=O)O)C(=O)N[C@@H](CO)C(=O)N[C@@H](CCCCNC(=O)C2CCC(CN3C(=O)C=CC3=O)CC2)C(N)=O)NC(=O)[C@H](Cc2ccc(O)cc2)N(C)C(=O)[C@H](Cc2ccc(O)cc2)NC(=O)[C@H](CCCNC(=N)N)NC(=O)[C@H](CCCNC(=N)N)NC(=O)[C@H]([C@@H](C)CC)NC1=O (stereo partly shown) [894_5m_GGESES_K(Mal)]

Same assay, conditions: naked peptide (1st to 15th amino acids, without linker part) corresponding to the listed linker-attached peptide; read-out: SPR of naked peptide (KD for binding to hTfR)

Row | Kd | SMILES
9 | < 1 nM | CC[C@H](C)[C@@H]1NC(=O)[C@H](Cc2ccc(O)cc2)NC(=O)[C@H](Cc2ccc(O)cc2)NC(=O)[C@H](CC(N)=O)NC(=O)[C@H](Cc2c[nH]c3ccccc23)NC(=O)[C@H](C(C)C)NC(=O)[C@H](Cc2ccccc2)NC(=O)[C@H](C(C)C)NC(=O)[C@H](C)NC(=O)CSC[C@@H](C(=O)NCCOCCOCCOCCOCCOCCOCCOCCOCCOCCOCCOCCOCCC(=O)N[C@@H](CCCCNC(=O)C2CCC(CN3C(=O)C=CC3=O)CC2)C(N)=O)NC(=O)[C@H](Cc2ccc(O)cc2)N(C)C(=O)[C@H](Cc2ccc(O)cc2)NC(=O)[C@H](CCCNC(=N)N)NC(=O)[C@H](CCCNC(=N)N)NC(=O)[C@H]([C@@H](C)CC)NC1=O (stereo partly shown) [hTfR_000894_PEG11_K (Maleimide)]
10 | < 1 nM | CC[C@H](C)[C@@H]1NC(=O)[C@H](Cc2ccc(O)cc2)NC(=O)[C@H](Cc2ccc(O)cc2)NC(=O)[C@H](CC(N)=O)NC(=O)[C@H](Cc2c[nH]c3ccccc23)NC(=O)[C@H](C(C)C)NC(=O)[C@H](Cc2ccccc2)NC(=O)[C@H](C(C)C)NC(=O)[C@H](C)NC(=O)CSC[C@@H](C(=O)NCCOCCOCCOCCOCCOCCOCCOCCOCCOCCOCCOCCOCCOCCOCCOCCOCCOCCOCCOCCOCCOCCOCCOCCOCCOCCOCCOCCOCCOCCOCCOCCOCCOCCOCCOCCOCCC(=O)ON2C(=O)CCC2=O)NC(=O)[C@H](Cc2ccc(O)cc2)N(C)C(=O)[C@H](Cc2ccc(O)cc2)NC(=O)[C@H](CCCNC(=N)N)NC(=O)[C@H](CCCNC(=N)N)NC(=O)[C@H]([C@@H](C)CC)NC1=O [JCR_hTfR_000894_PEG36_(NHS)]
11 | < 1 nM | CC[C@H](C)[C@@H]1NC(=O)[C@H](Cc2ccc(O)cc2)NC(=O)[C@H](Cc2ccc(O)cc2)NC(=O)[C@H](CC(N)=O)NC(=O)[C@H](Cc2c[nH]c3ccccc23)NC(=O)[C@H](C(C)C)NC(=O)[C@H](Cc2ccccc2)NC(=O)[C@H](C(C)C)NC(=O)[C@H](C)NC(=O)CSC[C@@H](C(=O)NCCOCCOCCOCCOCCOCCOCCOCCOCCOCCOCCOCCOCCOCCOCCOCCOCCOCCOCCOCCOCCOCCOCCOCCOCCOCCOCCOCCOCCOCCOCCOCCOCCOCCOCCOCCOCCC(=O)NN)NC(=O)[C@H](Cc2ccc(O)cc2)N(C)C(=O)[C@H](Cc2ccc(O)cc2)NC(=O)[C@H](CCCNC(=N)N)NC(=O)[C@H](CCCNC(=N)N)NC(=O)[C@H]([C@@H](C)CC)NC1=O [hTIR_000894_PEG36_(Hydrazine)]
12 | 1 to 100 nM | CC[C@H](C)[C@@H]1NC(=O)[C@H](Cc2ccc(O)cc2)NC(=O)[C@H](Cc2ccc(O)cc2)NC(=O)[C@H](CC(N)=O)NC(=O)[C@H](Cc2c[nH]c3ccccc23)N(C)C(=O)[C@H](C(C)C)NC(=O)[C@H](Cc2ccccc2)N(C)C(=O)[C@H](C(C)C)NC(=O)[C@H](C)NC(=O)CSC[C@@H](C(=O)NCC(=O)NCC(=O)NCC(=O)NCC(=O)N[C@@H](CO)C(=O)N[C@@H](CO)C(=O)N[C@@H](CCCCn2cc(CN3C(=O)C=CC3=O)nn2)C(N)=O)NC(=O)[C@H](Cc2ccc(O)cc2)N(C)C(=O)[C@H](Cc2ccc(O)cc2)NC(=O)[C@H](CCCNC(=N)N)NC(=O)[C@H](CCCCN)NC(=O)[C@H]([C@@H](C)CC)NC1=O [894_11K_3Me_5Me_G4S2_KTrzMal]
13 | < 1 nM | CC[C@H](C)[C@@H]1NC(=O)[C@H](Cc2ccc(O)cc2)NC(=O)[C@H](Cc2ccc(O)cc2)NC(=O)[C@H](CC(N)=O)NC(=O)[C@H](Cc2c[nH]c3ccccc23)NC(=O)[C@H](C(C)C)NC(=O)[C@H](Cc2ccccc2)NC(=O)[C@H](C(C)C)NC(=O)[C@H](C)NC(=O)CSC[C@@H](C(=O)NCCOCCOCCOCCOCCOCCOCCOCCOCCOCCOCCOCCOCCC(=O)NN)NC(=O)[C@H](Cc2ccc(O)cc2)N(C)C(=O)[C@H](Cc2ccc(O)cc2)NC(=O)[C@H](CCCNC(=N)N)NC(=O)[C@H](CCCNC(=N)N)NC(=O)[C@](C)([C@@H](C)CC)NC1=O [hTfR_000894_PEG11_(Hydrazine)]
